Assay results reported in patent US11180462B2, “Microbiocidal oxadiazole derivatives” (SYNGENTA PARTICIPATIONS AG, priority 2015, dated 2021).

How the values were obtained:
[1] = test system: Puccinia recondita f. Sp. Tritici; assay: Fungicidal activity against Puccinia recondita f. sp. tritici / wheat / leaf disc preventative (brown rust); assay type: in vivo; conditions: foliar, 200 ppm in the applied formulation, wheat leaf segments, preventative, compared to untreated control leaf disks, read-out: disease control
Outline: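 Preventative leaf-segment test, wheat cv. Kanzler on water agar. Spray compound at 200 ppm, inoculate with spores 1 day later; 19° C., 75% rh, 12/12 h light. Read-out: % disease control vs untreated, 7 to 9 days after application.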

[2] = test system: Puccinia recondita f. Sp. Tritici; assay: Fungicidal activity against Puccinia recondita f. sp. tritici / wheat / leaf disc curative (brown rust); assay type: in vivo; conditions: foliar, 24 h, 200 ppm in the applied formulation, wheat leaf segments, curative (applied 1 day after inoculation), compared to untreated control leaf disks, read-out: disease control
Outline: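 Wheat cv. Kanzler leaf segments on agar, inoculated with rust spore suspension, kept dark at 19° C and 75% RH; formulated compound sprayed 1 day post-inoculation. Incubated 19° C, 75% RH, 12 h light/12 h dark; percent disease control vs untreated scored 6 to 8 days after application.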

Phakopsora Pachyrhizi = assay: Fungicidal activity against Phakopsora pachyrhizi / soybean / leaf disc preventative (Asian soybean rust); assay type: in vivo; conditions: foliar, 200 ppm in the applied formulation, soybean leaf disks, compared to untreated control leaf disks, read-out: disease control
Outline: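 Preventative soybean leaf-disc test: discs on water agar sprayed with diluted formulated compound, inoculated one day later with spores on the lower surface. Held 24–36 h dark at 20°C, 75% rh, then 12 h light/day; percent disease control versus untreated discs scored 12–14 days after application.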

[3] = test system: Glomerella lagenarium (Colletotrichum lagenarium); assay: Fungicidal activity against Glomerella lagenarium (Colletotrichum lagenarium) liquid culture / cucumber / preventative (anthracnose); assay type: cell-based; conditions: Colletotrichum orbiculare; 20 ppm in the applied formulation; liquid culture (PDB), growth inhibition measured photometrically after 3 to 4 days; compared to untreated control; read-out: disease control
Outline: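 Photometric read-out of fungal growth after 2–7 days, expressed as percent antifungal activity versus untreated check. Cryo-stored conidia in PDB; compound at 20 ppm; dark, 24 °C, 96% RH.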

COCCN(Cc1ccc(-c2noc(C(F)(F)F)n2)cc1)C(=O)C1CC1C (centres unmarked) [Compound 1.341, N-(2-methoxyethyl)-2-methyl-N-[[4-[5-(trifluoromethyl)-1,2,4-oxadiazol-3-yl]phenyl]methyl]-cyclopropane-carboxamide]
≥ 80%: pest or weed control at 200 ppm [1] | pest or weed control at 200 ppm [2] | pest or weed control at 200 ppm (Phakopsora Pachyrhizi) | inhibition of growth at 20 ppm [3]

CON(Cc1ccc(-c2noc(C(F)(F)F)n2)cc1)C(=O)N(C)CC#N [Compound 3.57, 1-(cyanomethyl)-3-methoxy-1-methyl-3-[[4-[5-(trifluoromethyl)-1,2,4-oxadiazol-3-yl]phenyl]methyl]urea]
≥ 80%: pest or weed control at 200 ppm [1] | pest or weed control at 200 ppm [2] | pest or weed control at 200 ppm (Phakopsora Pachyrhizi) | inhibition of growth at 20 ppm [3]

C=CCN(C(=O)CC)C(C#N)c1ccc(-c2noc(C(F)(F)F)n2)cc1 (centres unmarked) [Compound 1.592, N-allyl-N-[cyano-[4-[5-(trifluoromethyl)-1,2,4-oxadiazol-3-yl]phenyl]methyl]-propanamide]
≥ 80%: pest or weed control at 200 ppm [1] | pest or weed control at 200 ppm [2] | pest or weed control at 200 ppm (Phakopsora Pachyrhizi) | inhibition of growth at 20 ppm [3]

CC1CC1C(=O)N(O)Cc1ccc(-c2noc(C(F)(F)F)n2)cc1 (centres unmarked) [Compound 1.763, N-hydroxy-2-methyl-N-[[4-[5-(trifluoromethyl)-1,2,4-oxadiazol-3-yl]phenyl]methyl]-cyclopropane-carboxamide]
≥ 80%: pest or weed control at 200 ppm [1] | pest or weed control at 200 ppm [2] | pest or weed control at 200 ppm (Phakopsora Pachyrhizi) | inhibition of growth at 20 ppm [3]

CCON(Cc1ccc(-c2noc(C(F)(F)F)n2)cc1)C(=O)CCCOC [Compound 1.625, N-ethoxy-4-methoxy-N-[[4-[5-(trifluoromethyl)-1,2,4-oxadiazol-3-yl]phenyl]methyl]-butanamide]
≥ 80%: pest or weed control at 200 ppm [1] | pest or weed control at 200 ppm [2] | pest or weed control at 200 ppm (Phakopsora Pachyrhizi) | inhibition of growth at 20 ppm [3]

COC(C)C(=O)N(Cc1ccc(-c2noc(C(F)(F)F)n2)cc1)C(C)C (centres unmarked) [Compound 1.685, N-isopropyl-2-methoxy-N-[[4-[5-(trifluoromethyl)-1,2,4-oxadiazol-3-yl]phenyl]methyl]-propanamide]
≥ 80%: pest or weed control at 200 ppm [1] | pest or weed control at 200 ppm [2] | pest or weed control at 200 ppm (Phakopsora Pachyrhizi) | inhibition of growth at 20 ppm [3]

COCCN(Cc1ccc(-c2noc(C(F)(F)F)n2)cc1)C(=O)C(C)C [Compound 1.325, N-(2-methoxyethyl)-2-methyl-N-[[4-[5-(trifluoromethyl)-1,2,4-oxadiazol-3-yl]phenyl]methyl]-propanamide]
≥ 80%: pest or weed control at 200 ppm [1] | pest or weed control at 200 ppm [2] | pest or weed control at 200 ppm (Phakopsora Pachyrhizi) | inhibition of growth at 20 ppm [3]

CON(Cc1ccc(-c2noc(C(F)(F)F)n2)cc1)C(=O)C1(C(F)(F)F)CC1 [Compound 1.6, N-methoxy-1-(trifluoromethyl)-N-[[4-[5-(trifluoromethyl)-1,2,4-oxadiazol-3-yl]phenyl]methyl]-cyclopropane-carboxamide]
≥ 80%: pest or weed control at 200 ppm [1] | pest or weed control at 200 ppm [2] | pest or weed control at 200 ppm (Phakopsora Pachyrhizi) | inhibition of growth at 20 ppm [3]

CCN(Cc1ccc(-c2noc(C(F)(F)F)n2)cc1)C(=O)C1CCCO1 (centres unmarked) [Compound 1.509, N-ethyl-N-[[4-[5-(trifluoromethyl)-1,2,4-oxadiazol-3-yl]phenyl]methyl]-tetrahydrofuran-2-carboxamide]
≥ 80%: pest or weed control at 200 ppm [1] | pest or weed control at 200 ppm [2] | pest or weed control at 200 ppm (Phakopsora Pachyrhizi) | inhibition of growth at 20 ppm [3]

CC1(C(=O)N(Cc2ccc(-c3noc(C(F)(F)F)n3)cc2)CC2CC2)COC1 [Compound 1.235, N-(cyclopropylmethyl)-3-methyl-N-[[4-[5-(trifluoromethyl)-1,2,4-oxadiazol-3-yl]phenyl]methyl]-oxetane-3-carboxamide]
≥ 80%: pest or weed control at 200 ppm [1] | pest or weed control at 200 ppm [2] | pest or weed control at 200 ppm (Phakopsora Pachyrhizi) | inhibition of growth at 20 ppm [3]

C#CCN(Cc1ccc(-c2noc(C(F)(F)F)n2)cc1)C(=O)C1(C)CC1 [Compound 1.183, 1-methyl-N-prop-2-ynyl-N-[[4-[5-(trifluoromethyl)-1,2,4-oxadiazol-3-yl]phenyl]methyl]-cyclopropane-carboxamide]
≥ 80%: pest or weed control at 200 ppm [1] | pest or weed control at 200 ppm [2] | pest or weed control at 200 ppm (Phakopsora Pachyrhizi) | inhibition of growth at 20 ppm [3]

CNC(=O)N(Cc1ccc(-c2noc(C(F)(F)F)n2)cc1)OC [Compound 3.4, 1-methoxy-3-methyl-1-[[4-[5-(trifluoromethyl)-1,2,4-oxadiazol-3-yl]phenyl]methyl]urea]
≥ 80%: pest or weed control at 200 ppm [1] | pest or weed control at 200 ppm [2] | pest or weed control at 200 ppm (Phakopsora Pachyrhizi) | inhibition of growth at 20 ppm [3]

C#CCN(Cc1ccc(-c2noc(C(F)(F)F)n2)cc1)C(=O)CC(F)(F)F [Compound 1.177, 3,3,3-trifluoro-N-prop-2-ynyl-N-[[4-[5-(trifluoromethyl)-1,2,4-oxadiazol-3-yl]phenyl]methyl]-propanamide]
≥ 80%: pest or weed control at 200 ppm [1] | pest or weed control at 200 ppm [2] | pest or weed control at 200 ppm (Phakopsora Pachyrhizi) | inhibition of growth at 20 ppm [3]

O=C(CC1CC1)ON(Cc1ccc(-c2noc(C(F)(F)F)n2)cc1)C(=O)CC1CC1 [Compound 1.775, [(2-cyclo-propylacetyl)-[[4-[5-(trifluoromethyl)-1,2,4-oxadiazol-3-yl]phenyl]methyl]-amino] 2-cyclopropylacetale]
≥ 80%: pest or weed control at 200 ppm [1] | pest or weed control at 200 ppm [2] | pest or weed control at 200 ppm (Phakopsora Pachyrhizi) | inhibition of growth at 20 ppm [3]

COCCCC(=O)N(CCOC)Cc1ccc(-c2noc(C(F)(F)F)n2)cc1 [Compound 1.365, 4-methoxy-N-(2-methoxyethyl)-N-[[4-[5-(trifluoromethyl)-1,2,4-oxadiazol-3-yl]phenyl]methyl]-butanamide]
≥ 80%: pest or weed control at 200 ppm [1] | pest or weed control at 200 ppm [2] | pest or weed control at 200 ppm (Phakopsora Pachyrhizi) | inhibition of growth at 20 ppm [3]

CCC(COC)C(=O)N(O)Cc1ccc(-c2noc(C(F)(F)F)n2)cc1 (centres unmarked) [Compound 1.768, N-hydroxy-2-(methoxymethyl)-N-[[4-[5-(trifluoromethyl)-1,2,4-oxadiazol-3-yl]phenyl]methyl]-butanamide]
≥ 80%: pest or weed control at 200 ppm [1] | pest or weed control at 200 ppm [2] | pest or weed control at 200 ppm (Phakopsora Pachyrhizi) | inhibition of growth at 20 ppm [3]

CC(C)CC(=O)N(Cc1ccc(-c2noc(C(F)(F)F)n2)cc1)C1CC1 [Compound 1.109, N-cyclopropyl-3-methyl-N-[[4-[5-(trifluoromethyl)-1,2,4-oxadiazol-3-yl]phenyl]methyl]-butanamide]
≥ 80%: pest or weed control at 200 ppm [1] | pest or weed control at 200 ppm [2] | pest or weed control at 200 ppm (Phakopsora Pachyrhizi) | inhibition of growth at 20 ppm [3]

CN(C)C(=O)N(Cc1ccc(-c2noc(C(F)(F)F)n2)cc1)CC(F)(F)F [Compound 3.26, 1,1-dimethyl-3-(2,2,2-trifluoroethyl)-3-[[4-[5-(trifluoromethyl)-1,2,4-oxadiazol-3-yl]phenyl]methyl]urea]
≥ 80%: pest or weed control at 200 ppm [1] | pest or weed control at 200 ppm [2] | pest or weed control at 200 ppm (Phakopsora Pachyrhizi) | inhibition of growth at 20 ppm [3]

CC(C)N(Cc1ccc(-c2noc(C(F)(F)F)n2)cc1)C(=O)CC1CC1 [Compound 1.688, 2-cycloopropyl-N-isopropyl-N-[[4-[5-(trifluoromethyl)-1,2,4-oxadiazol-3-yl]phenyl]methyl]-acetamide]
≥ 80%: pest or weed control at 200 ppm [1] | pest or weed control at 200 ppm [2] | pest or weed control at 200 ppm (Phakopsora Pachyrhizi) | inhibition of growth at 20 ppm [3]

CON(Cc1ccc(-c2noc(C(F)(F)F)n2)cc1)C(=O)C1CCOC1 (centres unmarked) [Compound 1.29, N-methoxy-N-[[4-[5-(trifluoromethyl)-1,2,4-oxadiazol-3-yl]phenyl]methyl]-tetrahydrofuran-3-carboxamide]
≥ 80%: pest or weed control at 200 ppm [1] | pest or weed control at 200 ppm [2] | pest or weed control at 200 ppm (Phakopsora Pachyrhizi) | inhibition of growth at 20 ppm [3]
